According to patent publication EP4786487A1, “PEPTIDE” (Peptidream Inc, priority 2023, dated 2025):
Starred links: 1 amine or outer side, 2 acyl side, 3 side chain; linkers in the order of their positions; H or OH if unused. Positions of bridges follow the written chain, without caps; N, C: chain ends. Non-standard residues stand in square brackets, D forms with d. Residues, ends and D or L forms follow the SMILES beside them. *: point of attachment. Phe(3-OCH2COOH) = N[C@@H](Cc1cccc(OCC(=O)O)c1)C(=O)O; Phe(4-COOH) = N[C@@H](Cc1ccc(C(=O)O)cc1)C(=O)O; Trp(6-aza) = N[C@@H](Cc1c[nH]c2cnccc12)C(=O)O; Piperazinyl(4-CH2COOH) = O=C(O)CN1CCN(*)CC1; Gly(N(CH2)3COOH) = O=C(O)CCCNCC(=O)O; NMe4Pal = CN[C@@H](Cc1ccncc1)C(=O)O; X1 = CCCCCCC[C@H](N[*:1])C(=O)[*:2]; X7 = COCCCCC[C@H](N[*:1])C(=O)[*:2]; X5 = CC(=O)NCCCN(CC(=O)[*:2])[*:1]; Gly(N-(CH2)3OMe) = COCCCNCC(=O)O; NMeF = CN[C@@H](Cc1ccccc1)C(=O)O; 4Pal = N[C@@H](Cc1ccncc1)C(=O)O; Ahp(2) = CCCCC[C@H](N)C(=O)O; NMeA = CN[C@@H](C)C(=O)O; Nme = COCCNCC(=O)O; Sar = CNCC(=O)O

Tests used:
[1] = biological target: T1, GDF-11 (Homo sapiens, UniProt O95390); assay: HepG2 reporter gene assay, Evaluation Procedure (2): 2-concentrations assay, GDF-11 inhibition; type: cell-based; settings: GDF-11 10 ng/mL; for inhibition at 0.03 µM: HepG2, peptide 30nM, read-out: GDF11 Inhibition 30nM; for inhibition at 0.1 µM: HepG2, peptide 100nM, read-out: GDF11 Inhibition 100nM
T1 construct: purchased R&D systems 1958-GD-G8/CF
T1 sequence (O95390 299-407): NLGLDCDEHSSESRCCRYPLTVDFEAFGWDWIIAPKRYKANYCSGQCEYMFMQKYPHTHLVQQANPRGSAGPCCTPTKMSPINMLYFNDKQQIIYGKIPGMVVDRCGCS
Summary of the method: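 HepG2 cells carrying the transfected pGL3(CAGA)12-luc reporter, a pGL3 vector with luciferase placed downstream of 12 CAGA repeats, were stimulated with GDF-11 at a final 10 ng/mL together with test peptide. Blank wells received no GDF-11 and no peptide. Plates were incubated 20 to 24 hours at 37°C with 5% CO2. Luminescence from One-Glo substrate was read to calculate percent inhibition.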

[2] = biological target: T2, Myostatin (Homo sapiens, UniProt O14793); assay: HepG2 reporter gene assay, Evaluation Procedure (2): 2-concentrations assay, myostatin inhibition; type: cell-based; settings: Myostatin 10 ng/mL, HepG2; for inhibition at 0.03 µM: peptide 30nM, read-out: Myostatin Inhibition 30nM; for inhibition at 0.1 µM: peptide 100nM, read-out: Myostatin Inhibition 100nM
T2 construct: active myostatin (also called mature myostatin) is a homodimer consisting of two C-terminal growth factor domains; purchased R&D systems 788-G8/CF
T2 sequence (O14793 267-375): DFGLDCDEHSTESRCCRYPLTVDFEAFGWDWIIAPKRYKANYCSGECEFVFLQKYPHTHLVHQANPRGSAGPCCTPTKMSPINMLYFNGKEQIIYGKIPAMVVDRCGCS
Summary of the method: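 HepG2 cells (HB-8065, ATCC) carrying the transfected pGL3(CAGA)12-luc reporter plasmid were treated with myostatin (788-G8/CF, R&D systems) at a final concentration of 10 ng/mL plus peptide and incubated at 37°C, 5% CO2 for 20 to 24 hours. Luminescence was read after adding PBS mixed 1:1 with One-Glo substrate, and inhibition rate was calculated.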

Structure (SMILES)	inhibition at 0.03 µM [1] [%]	inhibition at 0.1 µM [1] [%]	inhibition at 0.03 µM [2] [%]	inhibition at 0.1 µM [2] [%]
CCCCCCC[C@@H]1NC(=O)[C@H](Cc2ccccc2)N(C)C(=O)[C@H](CCCNC(=N)N)NC(=O)[C@H](Cc2ccc(C(=O)O)cc2)NC(=O)[C@H](Cc2cccc(OCC(=O)O)c2)NC(=O)CN(C)C(=O)[C@H]([C@@H](C)CC)NC(=O)[C@H](Cc2ccccc2)N(C)C(=O)[C@H](Cc2ccc(O)cc2)NC(=O)[C@H](Cc2c[nH]c3cnccc23)NC(=O)[C@H](C)NC(=O)[C@H](C)NC(=O)CSC[C@H](C(=O)O)NC(=O)[C@H](Cc2ccccc2)N(C)C(=O)[C@H](C)N(C)C1=O [Myostatin_99_v208] ({CH2CO}-AA[Trp(6-aza)]Y[NMeF]I[Sar][Phe(3-OCH2COOH)][Phe(4-COOH)]R[NMeF][X1][NMeA][NMeF][dC]-OH; thioether N-15)	0	20	98	100
CCCCCCC[C@@H]1NC(=O)[C@H](Cc2ccncc2)N(C)C(=O)[C@H](CCCNC(=N)N)NC(=O)[C@H](Cc2ccc(C(=O)O)cc2)NC(=O)[C@H](Cc2cccc(OCC(=O)O)c2)NC(=O)CN(C)C(=O)[C@H]([C@@H](C)CC)NC(=O)[C@H](Cc2ccccc2)N(C)C(=O)[C@H](Cc2ccc(O)cc2)NC(=O)[C@H](Cc2c[nH]c3ccccc23)NC(=O)[C@H](C)NC(=O)[C@H](C)NC(=O)CSC[C@H](C(=O)O)NC(=O)[C@H](Cc2ccccc2)N(C)C(=O)[C@H](C)N(C)C1=O [Myostatin_99_v210] ({CH2CO}-AAWY[NMeF]I[Sar][Phe(3-OCH2COOH)][Phe(4-COOH)]R[NMe4Pal][X1][NMeA][NMeF][dC]-OH; thioether N-15)	0	7	95	99
CCCCCCC[C@@H]1NC(=O)[C@H](Cc2ccccc2)N(C)C(=O)[C@H](CCCNC(=N)N)NC(=O)[C@H](Cc2ccc(C(=O)O)cc2)NC(=O)[C@H](Cc2cccc(OCC(=O)O)c2)NC(=O)CN(C)C(=O)[C@H]([C@@H](C)CC)NC(=O)[C@H](Cc2ccccc2)N(C)C(=O)[C@H](Cc2ccc(O)cc2)NC(=O)[C@H](Cc2c[nH]c3ccccc23)NC(=O)[C@H](C)NC(=O)[C@H](C)NC(=O)CSC[C@H](C(=O)O)NC(=O)[C@H](Cc2ccncc2)N(C)C(=O)[C@H](C)N(C)C1=O [Myostatin_99_v213] ({CH2CO}-AAWY[NMeF]I[Sar][Phe(3-OCH2COOH)][Phe(4-COOH)]R[NMeF][X1][NMeA][NMe4Pal][dC]-OH; thioether N-15)	0	0	90	98
CCCCCCC[C@@H]1NC(=O)[C@H](Cc2ccccc2)N(C)C(=O)[C@H](CCCNC(=N)N)NC(=O)[C@H](Cc2ccc(C(=O)O)cc2)NC(=O)[C@H](Cc2ccncc2)NC(=O)CN(C)C(=O)[C@H]([C@@H](C)CC)NC(=O)[C@H](Cc2ccccc2)N(C)C(=O)[C@H](Cc2ccc(O)cc2)NC(=O)[C@H](Cc2c[nH]c3ccccc23)NC(=O)[C@H](C)NC(=O)CN(CC(=O)O)C(=O)CSC[C@H](C(=O)O)NC(=O)[C@H](Cc2ccccc2)N(C)C(=O)[C@H](C)N(C)C1=O [Myostatin_99_v222]	0	8	93	99
CCCCCCC[C@@H]1NC(=O)[C@H](Cc2ccccc2)N(C)C(=O)[C@H](CCCNC(=N)N)NC(=O)[C@H](Cc2ccc(C(=O)O)cc2)NC(=O)[C@H](Cc2ccncc2)NC(=O)CN(C)C(=O)[C@H]([C@@H](C)CC)NC(=O)[C@H](Cc2ccccc2)N(C)C(=O)[C@H](Cc2ccc(O)cc2)NC(=O)[C@H](Cc2c[nH]c3ccccc23)NC(=O)[C@H](C)NC(=O)CN(CCOC)C(=O)CSC[C@H](C(=O)O)NC(=O)[C@H](Cc2ccccc2)N(C)C(=O)[C@H](C)N(C)C1=O [Myostatin_99_v224] ({CH2CO}-[Nme]AWY[NMeF]I[Sar][4Pal][Phe(4-COOH)]R[NMeF][X1][NMeA][NMeF][dC]-OH; thioether N-15)	0	0	96	99
CCCCCCC[C@@H]1NC(=O)[C@H](Cc2ccccc2)N(C)C(=O)[C@H](CCCNC(=N)N)NC(=O)[C@H](Cc2ccc(C(=O)O)cc2)NC(=O)[C@H](Cc2ccncc2)NC(=O)CN(C)C(=O)[C@H]([C@@H](C)CC)NC(=O)[C@H](Cc2ccccc2)N(C)C(=O)[C@H](Cc2ccc(O)cc2)NC(=O)[C@H](Cc2c[nH]c3ccccc23)NC(=O)[C@H](C)NC(=O)CN(CCCNC(C)=O)C(=O)CSC[C@H](C(=O)O)NC(=O)[C@H](Cc2ccccc2)N(C)C(=O)[C@H](C)N(C)C1=O [Myostatin_99_v225] ({CH2CO}-[X5]AWY[NMeF]I[Sar][4Pal][Phe(4-COOH)]R[NMeF][X1][NMeA][NMeF][dC]-OH; thioether N-15)	0	3	94	99
CC[C@H](C)[C@@H]1NC(=O)[C@H](Cc2ccccc2)N(C)C(=O)[C@H](Cc2ccc(O)cc2)NC(=O)[C@H](Cc2c[nH]c3ccccc23)NC(=O)[C@H](C)NC(=O)CN(CCCC(=O)O)C(=O)CSC[C@H](C(=O)O)NC(=O)[C@H](Cc2ccccc2)N(C)C(=O)[C@H](C)N(C)C(=O)[C@H](CCCCCOC)NC(=O)[C@H](Cc2ccccc2)N(C)C(=O)[C@H](CCCNC(=N)N)NC(=O)[C@H](Cc2ccc(C(=O)O)cc2)NC(=O)[C@H](Cc2ccncc2)NC(=O)CN(C)C1=O [Myostatin_99_v228] ({CH2CO}-[Gly(N(CH2)3COOH)]AWY[NMeF]I[Sar][4Pal][Phe(4-COOH)]R[NMeF][X7][NMeA][NMeF][dC]-OH; thioether N-15)	4	0	19	60

Further lines, results first:

inhibition at 0.03 µM [1] [%]	inhibition at 0.1 µM [1] [%]	inhibition at 0.03 µM [2] [%]	inhibition at 0.1 µM [2] [%]	Structure (SMILES)
0	0	88	97	CCCCC[C@@H]1NC(=O)[C@H](Cc2ccccc2)N(C)C(=O)[C@H](CCCNC(=N)N)NC(=O)[C@H](Cc2ccc(C(=O)O)cc2)NC(=O)[C@H](Cc2cccc(OCC(=O)O)c2)NC(=O)CN(C)C(=O)[C@H]([C@@H](C)CC)NC(=O)[C@H](Cc2ccccc2)N(C)C(=O)[C@H](Cc2ccc(O)cc2)NC(=O)[C@H](Cc2c[nH]c3ccccc23)NC(=O)[C@H](C)NC(=O)[C@H](C)NC(=O)CSC[C@H](C(N)=O)NC(=O)[C@H](Cc2ccccc2)N(C)C(=O)[C@H](C)N(C)C1=O [Myostatin_99_v206] ({CH2CO}-AAWY[NMeF]I[Sar][Phe(3-OCH2COOH)][Phe(4-COOH)]R[NMeF][Ahp(2)][NMeA][NMeF][dC]-NH2; thioether N-15)
0	0	44	74	CCCCCCC[C@@H]1NC(=O)[C@H](Cc2ccccc2)N(C)C(=O)[C@H](CCCNC(=N)N)NC(=O)[C@H](Cc2ccncc2)NC(=O)[C@H](Cc2cccc(OCC(=O)O)c2)NC(=O)CN(C)C(=O)[C@H]([C@@H](C)CC)NC(=O)[C@H](Cc2ccccc2)N(C)C(=O)[C@H](Cc2ccc(O)cc2)NC(=O)[C@H](Cc2c[nH]c3ccccc23)NC(=O)[C@@H](CCC(=O)O)NC(=O)[C@H](C)NC(=O)CSC[C@H](C(=O)O)NC(=O)[C@H](Cc2ccccc2)N(C)C(=O)[C@H](C)N(C)C1=O [Myostatin_99_v218] ({CH2CO}-A[dE]WY[NMeF]I[Sar][Phe(3-OCH2COOH)][4Pal]R[NMeF][X1][NMeA][NMeF][dC]-OH; thioether N-15)
0	5	95	99	CCCCCCC[C@@H]1NC(=O)[C@H](Cc2ccccc2)N(C)C(=O)[C@H](CCCNC(=N)N)NC(=O)[C@H](Cc2ccc(C(=O)O)cc2)NC(=O)[C@H](Cc2cccc(OCC(=O)O)c2)NC(=O)CN(C)C(=O)[C@H]([C@@H](C)CC)NC(=O)[C@H](Cc2ccccc2)N(C)C(=O)[C@H](Cc2ccc(O)cc2)NC(=O)[C@H](Cc2c[nH]c3ccccc23)NC(=O)[C@H](C)NC(=O)[C@H](C)NC(=O)CSC[C@@H](C(=O)N2CCN(CC(=O)O)CC2)NC(=O)[C@H](Cc2ccccc2)N(C)C(=O)[C@H](C)N(C)C1=O [Myostatin_99_v220] ({CH2CO}-AAWY[NMeF]I[Sar][Phe(3-OCH2COOH)][Phe(4-COOH)]R[NMeF][X1][NMeA][NMeF]C-{Piperazinyl(4-CH2COOH)}; thioether N-15)
0	28	94	99	CCCCCCC[C@@H]1NC(=O)[C@H](Cc2ccccc2)N(C)C(=O)[C@H](CCCNC(=N)N)NC(=O)[C@H](Cc2ccc(C(=O)O)cc2)NC(=O)[C@H](Cc2ccncc2)NC(=O)CN(C)C(=O)[C@H]([C@@H](C)CC)NC(=O)[C@H](Cc2ccccc2)N(C)C(=O)[C@H](Cc2ccc(O)cc2)NC(=O)[C@H](Cc2c[nH]c3ccccc23)NC(=O)[C@H](C)NC(=O)CN(CCCOC)C(=O)CSC[C@H](C(=O)O)NC(=O)[C@H](Cc2ccccc2)N(C)C(=O)[C@H](C)N(C)C1=O [Myostatin_99_v223] ({CH2CO}-[Gly(N-(CH2)3OMe)]AWY[NMeF]I[Sar][4Pal][Phe(4-COOH)]R[NMeF][X1][NMeA][NMeF][dC]-OH; thioether N-15)
